Key:
[1] = system: GFP-NFAT-1 in HEK293 cells; test: Inhibition of GFP-NFAT-1 nuclear translocation; format: cell-based; settings: 1 μM FK506 for 2 h, then 500 nM ionomycin 15 min; transfected HEK 293 cells; five independent experiments
Method: HEK293 cells (ATCC) were plated onto glass cover slips in 35-mm culture dishes. GFP-NFAT-1 plasmid[6] was transfected with Lipofectamine 2000 (ThermoFisher Scientific K.K., Yokohama, Japan). […] The nuclear fluorescence intensity was quantified using a Fluoview device (Olympus, Tokyo, Japan) and measured with AquaCosmos software (Hamamatsu Photonics). The fluorescent intensity of 10 cells was counted; five sets of experiments were conducted. Background fluorescent intensity was subtracted from all experiments.

[2] = system: IL-2 protein in Jurkat cells; test: Inhibition of the production of IL-2 (ELISA of supernatant); format: cell-based, human; settings: 100 nM FK506, then PMA and ionomycin 12 h
Method: Jurkat cells (1 × 10^5) were treated with medium containing peptides or FK506, then incubated with the same amount of medium containing 200 nM PMA (Sigma-Aldrich) and 4 μM ionomycin for an additional 12 h. IL-2 protein was detected in the supernatant of cells using an ELISA kit according to the manufacturer’s instructions (eBioscience, San Diego, CA, USA).

[3] = system: βTC6 cells; test: Insulin secretion in βTC6 cells (mouse insulin ELISA); format: cell-based; settings: FK506 0.01, 0.1 and 1 μM for 97 h, p < 0.05 for 0.01 μM, p < 0.01 for 0.1 and 1 μM, dose-dependent
Method: (§1) After 48, 96, or 144 hours, fresh medium was added; the samples taken to investigate the release of insulin were taken 1 hour later and assayed with a mouse insulin ELISA kit (Shibayagi, Shibukawa, Gunma, Japan).

[4] = system: isolated islets from BALB/c mice; test: Insulin secretion in isolated islets (mouse insulin ELISA); format: cell-based; settings: FK506 0.01, 0.1 and 1 μM for 97 h, p < 0.05 for 0.01 μM, p < 0.01 for 0.1 and 1 μM, dose-dependent
Method: as §1

[5] = system: secretion of insulin; settings: cited from earlier work
Excerpt: An important mechanism whereby calcineurin promotes the activation of T cells and the induction of cytokine-related genes is largely attributed to a family of transcriptional regulators that are referred to as NFAT. The immunosuppressants cyclosporine A and FK506, which are used clinically to prevent transplant rejection, inhibit the activity of calcineurin phosphatase on all its protein substrates, including NFAT[1], [2].

Insulin secretion [3]: significantly inhibited | Insulin secretion [4]: significantly inhibited
Structure (SMILES): C=CC[C@@H]1/C=C(\C)C[C@H](C)C[C@H](OC)[C@H]2O[C@@](O)(C(=O)C(=O)N3CCCC[C@H]3C(=O)O[C@H](/C(C)=C/[C@@H]3CC[C@@H](O)[C@H](OC)C3)[C@H](C)[C@@H](O)CC1=O)[C@H](C)C[C@@H]2OC [FK506]
Ionomycin-induced GFP-NFAT-1 nuclear translocation [1]: strong inhibition | Production of IL-2 [2]: completely inhibited | Secretion of insulin [5]: dose-dependent decrease
